Measurements reported in US20150141351A1, “Solid Pharmaceutical Compositions” (AbbVie Deutschland GmbH & Co. KG, priority 2013, published 2015).

Assay: drug substance degradation on hot melt extrusion
Assay type: physicochemical
Conditions: hot melt extrusion at a temperature of 165° C.
Experimental: Compound 1, Compound 2 and ritonavir were extruded using melt-extrusion. 31 g of copovidone, 3.5 g of vitamin E TPGS and 1.0 g of propylene glycol monolaurate were granulated for 2 minutes in a mill. After two hours, the mixture was blended with 5.09 g of ritonavir, 1.27 g of Compound 2, 7.64 g of Compound 1 and 0.5 g colloidal silica for 2 minutes in a blender and subsequently sieved over a 1.0 mm mesh sieve. The mixture was extruded on a Haake/Thermo Fisher extruder at 165° C. at a screw speed of 30 rpm. The extrudate thus prepared contained 15% Compound 1, 10% ritonavir, 2.5% Compound 2, 62% copovidone, 1% colloidal silica (areosil 200), 7% vitamin E TPGS, and 2% propylene glycol monolaurate.
The tablet was also tested for stability. […] The degradation of each drug substance after melt extrusion was within the specifications.

For `CC(C)c1nc(CN(C)C(=O)N[C@H](C(=O)N[C@@H](Cc2ccccc2)C[C@H](O)[C@H](Cc2ccccc2)NC(=O)OCc2cncs2)C(C)C)cs1` [ritonavir], the “ritonavir degradation when co-extruded with Compound 1 and Compound 2” value was “well within the acceptable levels”.
